According to ChEMBL document CHEMBL5465560, “Selectivity Literature for EUbOPEN Chemogenomic Library” (2024):
Residue numbers refer to the chain shown, from its start.

What was measured:
[1] = target: Protein arginine N-methyltransferase 8 (Homo sapiens, UniProt Q9NR22); conditions: at 1 µM
[2] = target: T1, Serine/threonine-protein kinase haspin (Homo sapiens) (UniProt Q8TF76); assay: Selectivity interaction (KinomeScan (DiscoverX)) EUB0000229b GSG2; conditions: at 10 µM
T1 sequence (whole entry): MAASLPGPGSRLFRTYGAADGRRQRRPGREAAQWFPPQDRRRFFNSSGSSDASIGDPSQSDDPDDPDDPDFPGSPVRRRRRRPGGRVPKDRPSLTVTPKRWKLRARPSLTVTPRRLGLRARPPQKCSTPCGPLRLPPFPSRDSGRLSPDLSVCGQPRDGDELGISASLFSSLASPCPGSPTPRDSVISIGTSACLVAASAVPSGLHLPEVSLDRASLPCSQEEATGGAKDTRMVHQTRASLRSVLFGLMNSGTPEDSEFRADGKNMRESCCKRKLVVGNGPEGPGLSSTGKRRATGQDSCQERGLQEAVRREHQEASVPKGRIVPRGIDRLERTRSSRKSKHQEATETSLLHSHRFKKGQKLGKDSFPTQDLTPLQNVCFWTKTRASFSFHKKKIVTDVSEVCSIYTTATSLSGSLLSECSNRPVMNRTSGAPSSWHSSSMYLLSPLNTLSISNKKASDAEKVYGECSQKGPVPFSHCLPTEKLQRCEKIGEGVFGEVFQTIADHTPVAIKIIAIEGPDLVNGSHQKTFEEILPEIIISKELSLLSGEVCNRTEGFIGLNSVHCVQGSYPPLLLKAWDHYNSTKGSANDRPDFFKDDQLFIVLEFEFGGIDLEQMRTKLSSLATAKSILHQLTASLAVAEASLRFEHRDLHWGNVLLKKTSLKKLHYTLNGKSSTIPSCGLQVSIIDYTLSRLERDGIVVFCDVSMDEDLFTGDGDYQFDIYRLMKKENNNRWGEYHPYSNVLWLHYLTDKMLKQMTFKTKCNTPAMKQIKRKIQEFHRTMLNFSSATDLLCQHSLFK

[3] = target: Ribosomal protein S6 kinase alpha-1 (Homo sapiens, UniProt Q15418); assay: Selectivity interaction (ActivX KiNativ screen (kinase selectivity in THP-1 cell lysates)) EUB0000639a RPS6KA1; assay type: subcellular; conditions: lysate, at 1 µM
[4] = target: Serine/threonine-protein kinase Nek6 (Homo sapiens) (UniProt Q9HC98); assay: Selectivity interaction (KinomeScan (DiscoverX)) EUB0000092b NEK6; conditions: at 10 µM
[5] = tested on: T2, Receptor-type tyrosine-protein kinase FLT3 (Homo sapiens), P36888 [D835H]; assay: (§1) Selectivity interaction (KinomeScan (DiscoverX)) EUB0000045b FLT3
T2 sequence (whole entry): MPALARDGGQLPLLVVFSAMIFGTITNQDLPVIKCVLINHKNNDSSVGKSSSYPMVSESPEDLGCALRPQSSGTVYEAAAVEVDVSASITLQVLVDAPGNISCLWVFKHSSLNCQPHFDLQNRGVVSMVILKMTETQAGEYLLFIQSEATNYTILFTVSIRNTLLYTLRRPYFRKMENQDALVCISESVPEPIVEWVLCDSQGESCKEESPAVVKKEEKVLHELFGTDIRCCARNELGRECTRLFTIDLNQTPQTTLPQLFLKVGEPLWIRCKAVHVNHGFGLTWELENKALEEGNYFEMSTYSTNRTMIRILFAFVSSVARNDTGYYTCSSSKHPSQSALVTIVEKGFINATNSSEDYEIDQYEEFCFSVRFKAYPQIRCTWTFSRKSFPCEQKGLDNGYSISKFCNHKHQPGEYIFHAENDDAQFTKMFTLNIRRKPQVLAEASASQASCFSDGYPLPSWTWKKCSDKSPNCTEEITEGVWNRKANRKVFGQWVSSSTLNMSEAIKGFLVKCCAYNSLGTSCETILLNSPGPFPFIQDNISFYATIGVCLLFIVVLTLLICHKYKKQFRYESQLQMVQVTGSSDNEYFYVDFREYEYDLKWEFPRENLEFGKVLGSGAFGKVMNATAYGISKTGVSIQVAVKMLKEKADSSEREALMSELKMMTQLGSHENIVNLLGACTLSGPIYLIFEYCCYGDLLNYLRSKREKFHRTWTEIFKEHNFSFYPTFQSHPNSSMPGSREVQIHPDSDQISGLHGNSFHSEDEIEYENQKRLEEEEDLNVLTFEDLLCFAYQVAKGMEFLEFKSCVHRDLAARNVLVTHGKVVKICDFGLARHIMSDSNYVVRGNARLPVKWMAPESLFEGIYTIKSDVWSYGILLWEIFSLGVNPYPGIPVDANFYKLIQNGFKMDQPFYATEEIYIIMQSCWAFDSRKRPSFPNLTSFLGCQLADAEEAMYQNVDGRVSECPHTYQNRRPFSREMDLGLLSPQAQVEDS

[6] = tested on: T3, Receptor-type tyrosine-protein kinase FLT3 (Homo sapiens), P36888 [D835Y]; assay: as §1
T3 sequence (whole entry): T2 sequence (whole entry) with H835Y

Sequence of Ribosomal protein S6 kinase alpha-1 (Q15418 whole entry): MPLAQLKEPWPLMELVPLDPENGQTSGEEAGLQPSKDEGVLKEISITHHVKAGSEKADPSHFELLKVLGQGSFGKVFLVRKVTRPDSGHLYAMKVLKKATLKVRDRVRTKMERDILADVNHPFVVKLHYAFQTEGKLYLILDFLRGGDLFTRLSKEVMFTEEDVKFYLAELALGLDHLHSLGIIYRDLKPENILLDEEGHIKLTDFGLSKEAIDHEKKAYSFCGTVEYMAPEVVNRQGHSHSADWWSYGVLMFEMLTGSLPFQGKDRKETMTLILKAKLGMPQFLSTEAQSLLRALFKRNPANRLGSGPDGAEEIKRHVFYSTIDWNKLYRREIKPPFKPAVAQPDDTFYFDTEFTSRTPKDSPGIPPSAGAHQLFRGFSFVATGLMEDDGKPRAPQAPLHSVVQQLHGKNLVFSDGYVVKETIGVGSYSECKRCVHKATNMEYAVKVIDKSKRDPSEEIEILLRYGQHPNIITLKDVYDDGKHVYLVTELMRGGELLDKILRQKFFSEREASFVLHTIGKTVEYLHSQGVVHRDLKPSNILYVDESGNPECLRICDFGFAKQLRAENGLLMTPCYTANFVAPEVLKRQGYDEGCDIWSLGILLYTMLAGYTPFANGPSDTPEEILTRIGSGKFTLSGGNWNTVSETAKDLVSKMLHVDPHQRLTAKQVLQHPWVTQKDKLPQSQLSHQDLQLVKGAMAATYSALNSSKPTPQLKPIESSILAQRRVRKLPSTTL
Sequence of Protein arginine N-methyltransferase 8 (Q9NR22 2-394 limits assumed): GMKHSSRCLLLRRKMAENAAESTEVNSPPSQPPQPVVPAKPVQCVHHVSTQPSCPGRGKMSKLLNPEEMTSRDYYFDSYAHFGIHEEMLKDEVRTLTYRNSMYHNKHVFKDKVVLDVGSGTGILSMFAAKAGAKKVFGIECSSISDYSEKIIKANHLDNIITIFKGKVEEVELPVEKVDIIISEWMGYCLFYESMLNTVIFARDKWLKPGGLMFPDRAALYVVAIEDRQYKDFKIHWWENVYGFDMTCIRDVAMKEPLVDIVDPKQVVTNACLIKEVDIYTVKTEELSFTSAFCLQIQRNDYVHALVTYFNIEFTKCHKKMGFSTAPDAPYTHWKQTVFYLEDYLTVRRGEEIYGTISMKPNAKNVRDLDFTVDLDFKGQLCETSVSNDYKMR
Sequence of Serine/threonine-protein kinase Nek6 (Homo sapiens) (Q9HC98 whole entry): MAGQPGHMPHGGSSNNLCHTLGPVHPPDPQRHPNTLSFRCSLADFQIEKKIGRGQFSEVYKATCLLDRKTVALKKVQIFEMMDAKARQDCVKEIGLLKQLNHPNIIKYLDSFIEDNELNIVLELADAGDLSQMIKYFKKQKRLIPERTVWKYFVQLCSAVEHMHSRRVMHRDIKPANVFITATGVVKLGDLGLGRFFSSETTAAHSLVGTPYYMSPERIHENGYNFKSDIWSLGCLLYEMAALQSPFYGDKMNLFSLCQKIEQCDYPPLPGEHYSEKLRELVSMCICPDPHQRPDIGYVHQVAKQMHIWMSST

CNCCN1CCC(c2cc(CN(C)C(=O)c3cccc(Oc4ccccc4)c3)ccn2)CC1
% activity [1]: > 90%

COc1cc(N(C)c2ccnc3ccc(C(F)(F)F)cc23)cc(OC)c1OC
% binding [2]: 43%

CC[C@@H]1[C@H](F)C(=O)N[C@@H]1COc1nccc2cc(C(N)=O)c(OC)cc12 [ZIMLOVISERTIB]
% of inhibition [3]: 8.6%

CCC(=O)N1CCN(c2ccc(-n3c(=O)ccc4cnc5ccc(-c6cnc7ccccc7c6)cc5c43)cc2C(F)(F)F)CC1
% of control [4]: 99%

C=CC(=O)Nc1cc(-n2c(=O)ccc3cnc4ccc(-c5ccc(NS(C)(=O)=O)cc5)cc4c32)ccc1C
% of control ([5]; at 1 µM): 89% | % of control ([5]; at 10 µM): 100% | % of control ([6]; at 1 µM): 100% | % of control ([6]; at 10 µM): 100%
